Measurements as given in patent US11590472B2, “Methods and compositions for on-demand release of ClO2 gas from UV-activated chlorite ion” (Wisconsin Alumni Research Foundation, priority 2015, dated 2023).

Test system: L. monocytogenes
Assay: Microbial kill on L. monocytogenes inoculated lettuce in pouches
Type: cell-based
Conditions: 5 days post inoculation and packaging
From the text: To verify its efficacy against pathogenic bacteria, pouch samples were sent to Institute of Food Safety and Health (IFSH) for a microbial study where they were filled with 30 grams of lettuce that was inoculated with the L. monocytogenes with an initial count of 7.6E+06 CFU/g. The pouches were the same structure and size as Produce Packaging Example 1. The pouches were exposed to 3 s or 5 s of 254 nm UV radiation and analyzed for the microbial kill at 1 and 5 days. […] The pouches containing the ClO2 additive were either pre humidified to 80% RH or left unconditioned. The moisture required for the chlorine dioxide production in the dry samples came from the lettuce. It was observed that chlorine dioxide was able to attain 4-5 log kill in 5 days post inoculation and packaging.

Compound: [O][Cl+][O-] [chlorine dioxide]
- log kill of L. monocytogenes: 4-5 log
